Measurements published in ChEMBL document CHEMBL5120882, “Medicinal Chemistry Perspective on Targeting Mono-ADP-Ribosylating PARPs with Small Molecules” (J Med Chem, 2022).
pIC50: −log10 of the molar value.

Experiments:
[1] = molecular target: T1, Protein mono-ADP-ribosyltransferase PARP10 (Homo sapiens, UniProt Q53GL7); test: Inhibition of C-terminal his-tagged human PARP10 expressed in Escherichia coli Rosette2 (DE3)
T1 sequence (Q53GL7 whole entry): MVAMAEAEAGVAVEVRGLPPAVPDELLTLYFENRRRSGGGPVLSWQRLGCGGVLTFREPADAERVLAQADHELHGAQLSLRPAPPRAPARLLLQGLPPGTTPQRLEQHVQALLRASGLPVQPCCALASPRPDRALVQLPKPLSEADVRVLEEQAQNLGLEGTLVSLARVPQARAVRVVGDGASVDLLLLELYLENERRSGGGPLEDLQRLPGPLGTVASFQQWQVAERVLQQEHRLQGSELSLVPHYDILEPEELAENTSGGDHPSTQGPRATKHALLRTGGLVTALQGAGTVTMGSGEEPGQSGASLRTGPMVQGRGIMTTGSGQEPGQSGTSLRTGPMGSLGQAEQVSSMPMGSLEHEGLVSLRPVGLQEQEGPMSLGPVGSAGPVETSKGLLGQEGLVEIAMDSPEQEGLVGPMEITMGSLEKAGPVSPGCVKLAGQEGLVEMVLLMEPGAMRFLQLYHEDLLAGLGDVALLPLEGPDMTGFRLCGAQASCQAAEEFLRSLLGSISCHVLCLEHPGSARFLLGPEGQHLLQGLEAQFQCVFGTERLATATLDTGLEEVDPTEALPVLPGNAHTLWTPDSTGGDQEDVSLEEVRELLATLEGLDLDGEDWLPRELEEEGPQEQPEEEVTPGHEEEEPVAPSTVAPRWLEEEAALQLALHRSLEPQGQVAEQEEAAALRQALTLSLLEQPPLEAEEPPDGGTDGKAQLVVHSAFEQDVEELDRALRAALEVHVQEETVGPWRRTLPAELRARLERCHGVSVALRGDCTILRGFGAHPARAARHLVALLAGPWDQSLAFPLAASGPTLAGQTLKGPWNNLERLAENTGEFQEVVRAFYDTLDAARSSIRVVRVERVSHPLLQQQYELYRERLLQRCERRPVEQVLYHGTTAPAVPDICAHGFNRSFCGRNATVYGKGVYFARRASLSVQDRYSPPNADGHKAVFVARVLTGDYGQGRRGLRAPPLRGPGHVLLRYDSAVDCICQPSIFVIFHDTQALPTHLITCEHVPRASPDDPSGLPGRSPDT

[2] = molecular target: Poly [ADP-ribose] polymerase 2 (Homo sapiens, UniProt Q9UGN5); test: Inhibition of N-terminal his-tagged human PARP2 expressed in Escherichia coli Rosette2 (DE3)
Chain of Poly [ADP-ribose] polymerase 2 (Q9UGN5 whole entry): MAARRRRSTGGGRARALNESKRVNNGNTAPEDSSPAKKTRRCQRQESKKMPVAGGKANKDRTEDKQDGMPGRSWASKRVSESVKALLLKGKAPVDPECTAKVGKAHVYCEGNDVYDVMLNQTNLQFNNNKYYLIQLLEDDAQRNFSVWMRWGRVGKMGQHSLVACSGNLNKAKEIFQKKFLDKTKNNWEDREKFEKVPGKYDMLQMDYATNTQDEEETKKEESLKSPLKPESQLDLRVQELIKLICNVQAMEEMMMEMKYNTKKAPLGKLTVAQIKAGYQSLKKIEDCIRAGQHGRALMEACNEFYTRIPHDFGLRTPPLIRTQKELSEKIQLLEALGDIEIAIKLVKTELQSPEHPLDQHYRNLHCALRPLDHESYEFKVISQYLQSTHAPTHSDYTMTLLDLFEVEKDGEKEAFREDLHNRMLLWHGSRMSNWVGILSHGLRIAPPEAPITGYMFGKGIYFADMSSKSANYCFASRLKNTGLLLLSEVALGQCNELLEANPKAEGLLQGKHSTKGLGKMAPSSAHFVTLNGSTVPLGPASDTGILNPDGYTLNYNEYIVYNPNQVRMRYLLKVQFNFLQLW

[3] = molecular target: Protein mono-ADP-ribosyltransferase PARP14 (Homo sapiens, UniProt Q460N5); test: Inhibition of N-terminal his-tagged human PARP14 expressed in Escherichia coli Rosette2 (DE3)
Chain of Protein mono-ADP-ribosyltransferase PARP14 (Q460N5 whole entry): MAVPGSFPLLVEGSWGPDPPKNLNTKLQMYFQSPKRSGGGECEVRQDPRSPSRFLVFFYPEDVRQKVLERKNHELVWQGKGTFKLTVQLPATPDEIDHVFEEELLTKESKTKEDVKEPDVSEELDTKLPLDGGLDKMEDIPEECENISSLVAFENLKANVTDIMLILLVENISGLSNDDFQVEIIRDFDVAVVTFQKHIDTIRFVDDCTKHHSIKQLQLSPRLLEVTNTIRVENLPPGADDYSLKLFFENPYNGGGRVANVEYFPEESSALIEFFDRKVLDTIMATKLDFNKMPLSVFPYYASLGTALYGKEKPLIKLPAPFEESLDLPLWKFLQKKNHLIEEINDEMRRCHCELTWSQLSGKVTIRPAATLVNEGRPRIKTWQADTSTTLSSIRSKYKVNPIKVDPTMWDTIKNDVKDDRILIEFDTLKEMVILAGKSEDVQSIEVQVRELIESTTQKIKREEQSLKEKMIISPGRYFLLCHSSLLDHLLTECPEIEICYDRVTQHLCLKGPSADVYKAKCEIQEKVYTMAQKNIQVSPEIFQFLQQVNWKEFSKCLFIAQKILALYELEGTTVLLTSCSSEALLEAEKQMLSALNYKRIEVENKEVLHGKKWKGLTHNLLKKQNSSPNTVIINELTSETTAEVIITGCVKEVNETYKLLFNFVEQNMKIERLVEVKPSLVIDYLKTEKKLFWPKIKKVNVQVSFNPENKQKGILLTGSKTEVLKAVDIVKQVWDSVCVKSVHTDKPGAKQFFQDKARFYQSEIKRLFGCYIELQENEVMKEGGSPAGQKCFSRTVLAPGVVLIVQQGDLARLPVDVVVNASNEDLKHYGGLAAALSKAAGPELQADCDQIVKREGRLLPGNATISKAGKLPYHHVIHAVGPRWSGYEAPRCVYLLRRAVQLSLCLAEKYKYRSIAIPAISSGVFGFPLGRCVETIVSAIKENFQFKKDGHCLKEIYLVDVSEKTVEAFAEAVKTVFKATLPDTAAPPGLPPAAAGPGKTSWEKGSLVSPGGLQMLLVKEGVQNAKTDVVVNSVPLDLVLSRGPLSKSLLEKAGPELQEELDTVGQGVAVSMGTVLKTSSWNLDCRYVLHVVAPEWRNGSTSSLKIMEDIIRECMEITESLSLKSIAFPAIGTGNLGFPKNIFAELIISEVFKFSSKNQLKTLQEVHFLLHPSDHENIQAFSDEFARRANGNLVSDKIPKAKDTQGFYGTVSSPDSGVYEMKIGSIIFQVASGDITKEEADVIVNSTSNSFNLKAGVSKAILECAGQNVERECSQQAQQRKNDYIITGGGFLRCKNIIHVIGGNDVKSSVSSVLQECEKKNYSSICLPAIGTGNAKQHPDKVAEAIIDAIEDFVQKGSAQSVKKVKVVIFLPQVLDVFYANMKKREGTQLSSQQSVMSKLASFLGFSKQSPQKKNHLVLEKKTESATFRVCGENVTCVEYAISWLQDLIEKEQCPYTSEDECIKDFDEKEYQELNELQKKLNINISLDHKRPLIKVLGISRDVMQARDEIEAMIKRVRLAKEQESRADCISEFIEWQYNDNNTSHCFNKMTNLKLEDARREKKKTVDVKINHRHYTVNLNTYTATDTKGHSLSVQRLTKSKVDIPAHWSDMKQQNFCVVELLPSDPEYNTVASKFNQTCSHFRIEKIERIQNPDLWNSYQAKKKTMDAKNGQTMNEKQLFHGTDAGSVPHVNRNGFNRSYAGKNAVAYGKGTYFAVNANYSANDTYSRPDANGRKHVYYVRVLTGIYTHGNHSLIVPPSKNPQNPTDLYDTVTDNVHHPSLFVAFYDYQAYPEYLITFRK

[4] = molecular target: T2, Poly [ADP-ribose] polymerase tankyrase-2 (Homo sapiens, UniProt Q9H2K2); test: Inhibition of N-terminal his-tagged human TNKS2 expressed in Escherichia coli Rosette2 (DE3)
T2 sequence (Q9H2K2 whole entry): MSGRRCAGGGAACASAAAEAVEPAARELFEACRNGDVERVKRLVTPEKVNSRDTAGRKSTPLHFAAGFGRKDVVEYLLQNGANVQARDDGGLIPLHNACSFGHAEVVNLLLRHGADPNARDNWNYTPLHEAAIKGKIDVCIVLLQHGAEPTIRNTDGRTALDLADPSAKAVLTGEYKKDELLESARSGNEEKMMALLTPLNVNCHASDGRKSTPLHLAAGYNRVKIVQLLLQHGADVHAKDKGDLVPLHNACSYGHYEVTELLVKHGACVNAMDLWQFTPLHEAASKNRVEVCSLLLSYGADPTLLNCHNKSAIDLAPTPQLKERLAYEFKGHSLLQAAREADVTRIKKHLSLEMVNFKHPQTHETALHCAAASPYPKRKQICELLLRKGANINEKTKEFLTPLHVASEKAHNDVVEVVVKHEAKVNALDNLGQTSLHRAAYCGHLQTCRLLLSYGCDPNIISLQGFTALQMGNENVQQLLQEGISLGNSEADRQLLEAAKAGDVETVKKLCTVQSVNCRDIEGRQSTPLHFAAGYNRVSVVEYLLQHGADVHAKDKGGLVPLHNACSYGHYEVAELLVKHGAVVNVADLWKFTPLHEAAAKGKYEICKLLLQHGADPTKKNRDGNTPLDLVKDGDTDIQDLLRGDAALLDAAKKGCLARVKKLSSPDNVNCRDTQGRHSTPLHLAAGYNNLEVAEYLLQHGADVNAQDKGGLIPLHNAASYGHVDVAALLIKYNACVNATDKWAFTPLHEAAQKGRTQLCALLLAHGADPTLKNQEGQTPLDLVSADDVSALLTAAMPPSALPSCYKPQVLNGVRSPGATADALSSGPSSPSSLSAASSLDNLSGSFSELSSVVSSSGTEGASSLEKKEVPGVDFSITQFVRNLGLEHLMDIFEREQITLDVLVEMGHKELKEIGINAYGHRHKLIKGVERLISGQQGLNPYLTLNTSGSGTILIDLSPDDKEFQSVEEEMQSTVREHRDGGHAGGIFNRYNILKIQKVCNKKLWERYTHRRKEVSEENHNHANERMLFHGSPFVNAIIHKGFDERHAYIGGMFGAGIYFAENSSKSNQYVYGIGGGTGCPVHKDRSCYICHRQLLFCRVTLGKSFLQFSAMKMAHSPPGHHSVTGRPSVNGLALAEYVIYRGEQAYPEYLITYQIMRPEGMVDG

SMILES | pIC50 [1] | pIC50 [2] | pIC50 [3] | pIC50 [4]
NC(=O)c1ccc(Oc2cccc(C(N)=O)c2)cc1 | 6.32 | 5.77 | 4.39 | 5.19
N#Cc1ccc(Oc2ccc(C(N)=O)cc2)cc1 | 5.44 | 4.57 | < 4.00 | < 4.00
